From US9440982B2 (Eolas Therapeutics, Inc., priority 2012, dated 2016) come the findings set out here.

Read-outs that look alike come from different tables or passages of the source.

One data set addresses T1, OX1 (Homo sapiens, UniProt O43613).
T1 construct: expressed in transfected cells; host or cells: CHO (CHO-OX1, kept under selection antibiotic)
T1 sequence (O43613 1-425): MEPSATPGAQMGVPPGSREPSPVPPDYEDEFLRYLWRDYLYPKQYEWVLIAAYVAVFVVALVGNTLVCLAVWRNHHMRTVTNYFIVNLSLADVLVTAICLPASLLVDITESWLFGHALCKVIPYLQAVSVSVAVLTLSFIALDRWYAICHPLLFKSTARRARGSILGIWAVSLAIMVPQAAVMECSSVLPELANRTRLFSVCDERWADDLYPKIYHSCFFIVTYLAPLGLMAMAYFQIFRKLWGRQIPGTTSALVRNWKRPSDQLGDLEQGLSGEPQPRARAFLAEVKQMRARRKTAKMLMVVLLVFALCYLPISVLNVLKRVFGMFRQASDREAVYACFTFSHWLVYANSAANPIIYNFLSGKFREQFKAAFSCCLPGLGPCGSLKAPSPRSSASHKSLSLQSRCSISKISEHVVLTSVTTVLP
Description: Orexin receptor cell-based functional assay, [Ca2+]i by FLIPR, CHO-OX1 cells. As to conditions: CHO-OX1 cells, EC90 of OXA. A digest of the protocol: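 CHO cells expressing human OX1 or OX2 loaded with calcium dye plus 2.5 mM probenecid at 37° C (calcium4, 30 min, or calcium6, 2 h), then exposed to compounds (0.1 nM-10 μM) for 30 min. Intracellular Ca2+ measured on FLIPR; antagonist format.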

For another data set, the target named is T2, CYP3A4 (Homo sapiens, UniProt P08684).
T2 construct: pre-incubated with human liver microsomes and NADPH; from tissue; host or cells: human liver microsomes
T2 sequence (P08684 whole entry): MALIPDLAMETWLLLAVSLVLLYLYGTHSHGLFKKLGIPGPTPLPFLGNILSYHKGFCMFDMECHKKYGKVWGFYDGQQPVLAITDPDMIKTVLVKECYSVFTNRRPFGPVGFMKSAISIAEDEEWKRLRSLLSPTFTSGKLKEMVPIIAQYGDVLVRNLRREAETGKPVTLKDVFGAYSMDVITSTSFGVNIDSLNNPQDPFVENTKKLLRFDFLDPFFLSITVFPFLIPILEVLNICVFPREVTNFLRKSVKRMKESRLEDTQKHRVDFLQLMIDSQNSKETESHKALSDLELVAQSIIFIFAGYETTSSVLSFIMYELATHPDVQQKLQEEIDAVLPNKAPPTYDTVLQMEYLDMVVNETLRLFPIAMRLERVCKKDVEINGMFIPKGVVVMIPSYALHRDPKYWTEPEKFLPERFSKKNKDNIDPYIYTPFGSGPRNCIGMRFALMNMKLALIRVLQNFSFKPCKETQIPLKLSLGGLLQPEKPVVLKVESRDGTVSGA
As to the kind of experiment: Cytochrome P450 inhibition assay (midazolam hydroxylation). The format is in vitro ADME. As to conditions: human, human liver microsomes, probe midazolam (hydroxylation to 1′-hydroxymidazolam), 10 μM test compound, midazolam at approximately its Km. The method in brief:
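Human liver microsomes; CYP3A4 activity as midazolam 1′-hydroxylation with substrate near Km, with or without 10 μM test compound, read as percent inhibition. For time-dependent inhibition, parallel samples were preincubated 30 min with NADPH before substrate, and percent inhibition compared with non-preincubated samples.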
(Microsomes from liver hold many membrane-bound enzymes, among them those of drug oxidation.)

The target in another data set is T3, OX2 (Homo sapiens, UniProt O43614).
T3 construct: expressed in transfected cells; host or cells: CHO (CHO-OX2, kept under selection antibiotic)
T3 sequence (O43614 1-444): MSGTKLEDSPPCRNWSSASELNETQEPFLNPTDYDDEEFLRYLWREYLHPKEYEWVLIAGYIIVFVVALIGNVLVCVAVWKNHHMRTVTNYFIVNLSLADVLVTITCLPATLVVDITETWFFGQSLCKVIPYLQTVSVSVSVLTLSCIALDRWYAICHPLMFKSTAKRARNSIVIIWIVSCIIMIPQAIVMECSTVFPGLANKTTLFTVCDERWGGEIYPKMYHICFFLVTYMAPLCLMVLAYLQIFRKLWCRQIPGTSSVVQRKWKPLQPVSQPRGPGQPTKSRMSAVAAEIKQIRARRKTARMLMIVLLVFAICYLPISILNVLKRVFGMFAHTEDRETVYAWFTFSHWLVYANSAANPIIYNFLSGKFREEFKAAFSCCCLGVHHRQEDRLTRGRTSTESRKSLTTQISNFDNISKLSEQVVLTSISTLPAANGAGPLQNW
As to the kind of experiment: Orexin receptor cell-based functional assay, [Ca2+]i by FLIPR, CHO-OX2 cells. As to the method:
Measurement of [Ca^2+]i using a FLIPR: CHO—OX1 or CHO—OX2 cells are seeded into black-walled clear-base 384-well plates (Costar) at a density of 20,000 cells per well in F12-K medium supplemented with 10% FBS and selection antibiotic (500 ug/ml G418 or 15 ug/ml Blasticidin) and cultured overnight. The cells are incubated with equal volume of calcium4 loading buffer (Molecular Devices, Inc.) containing 2.5 mM probenecid at 37° C. for 30 min, followed by putative OX1 or OX2 receptor antagonists (dose-range 0.1 nM-10 μM) for another 30 min.
The cells are incubated with equal volume of calcium6 loading buffer (Molecular Devices, Inc.) containing 2.5 mM probenecid at 37° C. for 2 h, followed by test compounds (dose-range 0.1 nM-10 μM) for another 30 min.

The mark [1] stands for this setting: [Ca2+]i by FLIPR, antagonist dose-range 0.1 nM-10 μM, read-out: OX1.
The mark [2] stands for this setting: [Ca2+]i by FLIPR, antagonist dose-range 0.1 nM-10 μM, EC90 of OXA, read-out: OX2.

On to `C[C@@H]1CCCN(C(=O)c2c(F)ccc(F)c2-n2nccn2)[C@@H]1CNc1ccc(C(F)(F)F)cn1` [Example A332, (3,6-Difluoro-2-(2H-1,2,3-triazol-2-yl)phenyl)((2S,3R)-3-methyl-2-(((5-(trifluoromethyl)pyridin-2-yl)amino)methyl)piperidin-1-yl)methanone], for which the IC50 is 2 nM on OX1 (setting [1]) and over 5000 nM at OX2 (setting [2]). At 10 µM the inhibition at CYP3A4 was 62%.

Regarding `Cc1ccc(C(=O)N2CCC[C@@H](C)[C@H]2CNc2ncc(C(F)(F)F)cn2)c(-c2ncccn2)c1F` [Example A359, (3-fluoro-4-methyl-2-(pyrimidin-2-yl)phenyl)((2S,3R)-3-methyl-2-(((5-(trifluoromethyl)pyrimidin-2-yl)amino)methyl)piperidin-1-yl)methanone], the IC50 on OX1 (setting [1]) was 6 nM; at OX2 (setting [2]) it was over 5000 nM. Besides, on CYP3A4, the inhibition (commonly the drop in the measured response relative to a control, in per cent) at 10 µM came out at 52%.

As to `C[C@@H]1CCCN(C(=O)c2ccc(F)c(F)c2-n2nccn2)[C@@H]1CNc1ncc(C(F)(F)F)cn1` [Example A325, (3,4-difluoro-2-(2H-1,2,3-triazol-2-yl)phenyl)((2S,3R)-3-methyl-2-(((5-(trifluoromethyl)pyrimidin-2-yl)amino)methyl)piperidin-1-yl)methanone], the IC50 at OX1 (setting [1]) turned out to be 2 nM; on OX2 (setting [2]), 4100 nM. Further, on CYP3A4, the inhibition at 10 µM is 80%.

Take `Cc1c(F)ccc(C(=O)N2CCC[C@@H](C)[C@H]2CNc2ccc(C(F)(F)F)cn2)c1-c1ncccn1` [Example A346, (4-fluoro-3-methyl-2-(pyrimidin-2-yl)phenyl)((2S,3R)-3-methyl-2-(((5-(trifluoromethyl)pyridin-2-yl)amino)methyl)piperidin-1-yl)methanone]: the inhibition at 10 µM against CYP3A4 came to 62%. For the same molecule, the IC50 at OX2 (setting [2]) worked out at 4200 nM.

For the molecule `Cc1cc(F)c(-n2nccn2)c(C(=O)N2CCC[C@@H](C)[C@H]2CNc2ncc(C(F)(F)F)cn2)c1` [Example A373, (3-fluoro-5-methyl-2-(2H-1,2,3-triazol-2-yl)phenyl)((2S,3R)-3-methyl-2-(((5-(trifluoromethyl)pyrimidin-2-yl)amino)methyl)piperidin-1-yl)methanone], the IC50 is 1 nM on OX1 (setting [1]) and 1900 nM at OX2 (setting [2]). For the same molecule, testing at 10 µM on CYP3A4 gave an inhibition of 60%.

Turning to `Cc1cc(F)cc(C(=O)N2CCC[C@@H](C)[C@H]2CNc2ccc(C(F)(F)F)cn2)c1-c1ncccn1` [Example A342, (5-Fluoro-3-methyl-2-(pyrimidin-2-yl)phenyl)((2S,3R)-3-methyl-2-(((5-(trifluoromethyl)pyridin-2-yl)amino)methyl)piperidin-1-yl)methanone], the IC50 on OX1 (setting [1]) stood at 1 nM; on OX2 (setting [2]), 380 nM. The molecule further registered an inhibition at 10 µM on CYP3A4 of 83%.

For `Cc1c(F)ccc(C(=O)N2CCC[C@@H](C)[C@H]2CNc2ncc(C(F)(F)F)cn2)c1-c1ncccn1` [Example A347, (4-fluoro-3-methyl-2-(pyrimidin-2-yl)phenyl)((2S,3R)-3-methyl-2-(((5-(trifluoromethyl)pyrimidin-2-yl)amino)methyl)piperidin-1-yl)methanone], the results for the IC50 on OX1 (setting [1]) and at OX2 (setting [2]) were 2 nM and over 5000 nM, respectively. In addition, the inhibition at 10 µM at CYP3A4 came out at 35%.

Consider `C[C@@H]1CCCN(C(=O)c2c(F)ccc(F)c2-c2ncccn2)[C@@H]1CNc1ccc(C(F)(F)F)cn1` [Example A334, (3,6-difluoro-2-(pyrimidin-2-yl)phenyl)((2S,3R)-3-methyl-2-(((5-(trifluoromethyl)pyridin-2-yl)amino)methyl)piperidin-1-yl)methanone], for which the IC50 at OX1 (setting [1]) came out at 2 nM; on OX2 (setting [2]), 500 nM. This molecule also displayed an inhibition at 10 µM against CYP3A4 of 54%.

With `Cc1ccc(F)c(C(=O)N2CCC[C@@H](C)[C@H]2CNc2ccc(C(F)(F)F)cn2)c1-c1ncccn1` [Example A354, (6-fluoro-3-methyl-2-(pyrimidin-2-yl)phenyl)((2S,3R)-3-methyl-2-(((5-(trifluoromethyl)pyridin-2-yl)amino)methyl)piperidin-1-yl)methanone], the figures for the IC50 at OX1 (setting [1]) and at OX2 (setting [2]) were 4 nM and 790 nM, respectively. Also, on CYP3A4, the inhibition at 10 µM was determined as 49%.

Turning to `Cc1ccc(-n2nccn2)c(C(=O)N2CCC[C@@H](C)[C@H]2COc2ccc(C(F)(F)F)cn2)c1` [Example A106], the IC50 at OX1 (setting [1]) is 7 nM; on OX2 (setting [2]), 2300 nM. The molecule further registered an inhibition at 10 µM against CYP3A4 of 54%.

As for `Cc1cc(F)c(-n2nccn2)c(C(=O)N2CCC[C@@H](C)[C@H]2CNc2ccc(C(F)(F)F)cn2)c1` [Example A372, (3-Fluoro-5-methyl-2-(2H-1,2,3-triazol-2-yl)phenyl)((2S,3R)-3-methyl-2-(((5-(trifluoromethyl)pyridin-2-yl)amino)methyl)piperidin-1-yl)methanone], the IC50 at OX1 (setting [1]) was determined as 1 nM; at OX2 (setting [2]) it was 490 nM. On CYP3A4, this molecule had an inhibition at 10 µM of 83%.

In the case of `Cc1ccc(-n2nccn2)c(C(=O)N2CC3CCCC3C2CNc2nc3cc(Cl)ccc3o2)c1` (centres unmarked) [Example A68, (1-(((5-Chlorobenzo[d]oxazol-2-yl)amino)methyl)hexahydrocyclopenta[c]pyrrol-2(1H)-yl)(5-methyl-2-(2H-1,2,3-triazol-2-yl)phenyl)methanone], the IC50 on OX1 (setting [1]) was determined as 250 nM; at OX2 (setting [2]), 3360 nM.

As to `Cc1ccc(-n2cccn2)c(C(=O)N2CCC[C@@H](C)[C@H]2CNc2ccc(C(F)(F)F)cn2)c1` (racemic) [Example 120, rac-cis-(3-Methyl-2-(((5-(trifluoromethyl)pyridin-2-yl)amino)methyl)piperidin-1-yl)(5-methyl-2-(1H-pyrazol-1-yl)phenyl)methanone], the IC50 stood at 3 nM on OX1 (Table 2, read-out: IC50 Bioactivity OX1) and 500 nM on OX2 (Table 2, EC90 of OXA, read-out: IC50 Bioactivity OX2).

Regarding `Cc1cccc(-n2nccn2)c1C(=O)N1CCC[C@@H](C)[C@H]1CNc1ncc(C(F)(F)F)cn1` [Example A264, ((2S,3R)-3-Methyl-2-(((5-(trifluoromethyl)pyrimidin-2-yl)amino)methyl)piperidin-1-yl)(2-methyl-6-(2H-1,2,3-triazol-2-yl)phenyl)methanone], the figures for the IC50 at OX1 (setting [1]) and at OX2 (setting [2]) were 23 nM and over 5000 nM, respectively.

Take `C[C@@H]1CCCN(C(=O)c2ccc(F)cc2-c2ncccn2)[C@@H]1CNc1ncc(C(F)(F)F)cn1` [Example A235, (4-Fluoro-2-(pyrimidin-2-yl)phenyl)((2S,3R)-3-methyl-2-(((5-(trifluoromethyl)pyrimidin-2-yl)amino)methyl)piperidin-1-yl)methanone]: the IC50 at OX1 (setting [1]) was determined as 12 nM; at OX2 (setting [2]) it was 2400 nM.

On CYP3A4, `Cc1ccc(F)c(C(=O)N2CCC[C@@H](C)[C@H]2CNc2ncc(C(F)(F)F)cn2)c1-c1ncccn1` [Example A355, (6-fluoro-3-methyl-2-(pyrimidin-2-yl)phenyl)((2S,3R)-3-methyl-2-(((5-(trifluoromethyl)pyrimidin-2-yl)amino)methyl)piperidin-1-yl)methanone] registered an inhibition at 10 µM of 25%. Also, at OX2 (setting [2]), the IC50 amounted to 870 nM.

For `Cc1ccc(C(=O)N2CCC[C@@H](C)[C@H]2CNc2ncc(C(F)(F)F)cn2)c(-c2ncccn2)c1` [Example A340, ((2S,3R)-3-Methyl-2-(((5-(trifluoromethyl)pyrimidin-2-yl)amino)methyl)piperidin-1-yl)(4-methyl-2-(pyrimidin-2-yl)phenyl)methanone], the IC50 is 2 nM on OX1 (setting [1]) and over 5000 nM at OX2 (setting [2]).
